Data from the kinase profiling compilation of Christmann-Franck et al. (2016).

Tests used:
Assay in all cases: radiometric filter-binding kinase assay
MAPK1 (human) = MAPK1 (human) (UniProt P28482)
NEK2 (human) = NEK2 (human) (UniProt P51955)
[1] = test system: AKT2 (human), P31751 [S474D]
HIPK2 (human) = HIPK2 (human) (UniProt Q9H2X6)
CSNK1D (human) = CSNK1D (human) (UniProt P48730)
MARK3 (human) = MARK3 (human) (UniProt P27448)
BTK (human) = BTK (human) (UniProt Q06187)
FLT1 (human) = FLT1 (human) (UniProt P17948)
MAPK15 (human) = MAPK15 (human) (UniProt Q8TD08)
INSRR (human) = INSRR (human) (UniProt P14616)
DYRK2 (human) = DYRK2 (human) (UniProt Q92630)
[2] = test system: RPS6KB1 (human), P23443 [T412E]
MAPK11 (human) = MAPK11 (human) (UniProt Q15759)
MAPK14 (human) = MAPK14 (human) (UniProt Q16539)
INSR (human) = INSR (human) (UniProt P06213)
YES1 (human) = YES1 (human) (UniProt P07947)
NEK6 (human) = NEK6 (human) (UniProt Q9HC98)
RPS6KA1 KD1 KD2 (human) = RPS6KA1 KD1 KD2 (human) (UniProt Q15418)
RPS6KA5 KD1 KD2 (human) = RPS6KA5 KD1 KD2 (human) (UniProt O75582)
PRKCA (human) = PRKCA (human) (UniProt P17252)
MKNK2 (human) = MKNK2 (human) (UniProt Q9HBH9)
CSNK2A1 (human) = CSNK2A1 (human) (UniProt P68400)
SRPK1 (human) = SRPK1 (human) (UniProt Q96SB4)
Chain of SRPK1 (human) (Q96SB4 whole entry, looked up): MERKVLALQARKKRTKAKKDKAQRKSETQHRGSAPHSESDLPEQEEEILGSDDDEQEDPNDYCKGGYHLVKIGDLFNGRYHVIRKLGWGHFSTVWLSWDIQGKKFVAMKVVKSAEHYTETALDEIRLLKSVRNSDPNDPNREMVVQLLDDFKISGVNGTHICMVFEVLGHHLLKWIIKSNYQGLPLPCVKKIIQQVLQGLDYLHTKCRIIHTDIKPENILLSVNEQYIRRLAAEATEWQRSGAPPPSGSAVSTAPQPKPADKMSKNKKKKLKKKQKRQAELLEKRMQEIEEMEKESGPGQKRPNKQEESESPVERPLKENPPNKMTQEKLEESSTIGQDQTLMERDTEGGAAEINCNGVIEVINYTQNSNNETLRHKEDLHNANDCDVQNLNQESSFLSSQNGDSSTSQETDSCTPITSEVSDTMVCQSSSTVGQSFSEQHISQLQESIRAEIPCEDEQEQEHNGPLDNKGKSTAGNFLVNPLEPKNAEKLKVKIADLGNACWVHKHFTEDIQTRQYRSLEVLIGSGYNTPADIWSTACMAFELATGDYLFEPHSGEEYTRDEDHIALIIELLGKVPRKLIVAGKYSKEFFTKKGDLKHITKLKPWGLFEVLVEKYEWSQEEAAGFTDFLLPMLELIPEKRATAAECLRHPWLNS

Chain of AKT2 (human), P31751 [S474D] (P31751 whole entry S474D, looked up): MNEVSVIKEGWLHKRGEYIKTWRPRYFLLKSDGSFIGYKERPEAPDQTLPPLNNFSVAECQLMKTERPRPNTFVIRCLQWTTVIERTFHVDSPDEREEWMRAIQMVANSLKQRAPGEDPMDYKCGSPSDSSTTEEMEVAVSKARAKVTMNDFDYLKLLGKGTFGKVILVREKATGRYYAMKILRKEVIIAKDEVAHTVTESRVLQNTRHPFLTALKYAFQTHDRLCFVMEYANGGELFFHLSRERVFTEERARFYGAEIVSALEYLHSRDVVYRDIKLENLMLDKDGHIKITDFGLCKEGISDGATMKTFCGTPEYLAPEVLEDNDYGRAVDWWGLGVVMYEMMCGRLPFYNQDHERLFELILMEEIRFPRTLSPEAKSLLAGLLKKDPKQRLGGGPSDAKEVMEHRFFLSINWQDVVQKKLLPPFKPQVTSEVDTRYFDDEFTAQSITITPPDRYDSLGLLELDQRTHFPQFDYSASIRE
Chain of MKNK2 (human) (Q9HBH9 whole entry, looked up): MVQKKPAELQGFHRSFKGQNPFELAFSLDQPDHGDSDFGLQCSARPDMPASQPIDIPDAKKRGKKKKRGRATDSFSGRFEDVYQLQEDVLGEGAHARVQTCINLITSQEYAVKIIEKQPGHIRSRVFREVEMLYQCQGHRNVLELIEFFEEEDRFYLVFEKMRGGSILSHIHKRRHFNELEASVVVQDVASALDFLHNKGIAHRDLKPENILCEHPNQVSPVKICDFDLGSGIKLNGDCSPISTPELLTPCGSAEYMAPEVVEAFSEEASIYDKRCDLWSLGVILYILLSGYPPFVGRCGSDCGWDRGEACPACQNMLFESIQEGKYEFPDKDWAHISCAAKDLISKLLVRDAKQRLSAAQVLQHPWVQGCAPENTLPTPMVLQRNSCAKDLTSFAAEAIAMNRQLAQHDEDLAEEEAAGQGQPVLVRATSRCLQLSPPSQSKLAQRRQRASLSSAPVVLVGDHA
Chain of CSNK2A1 (human) (P68400 whole entry, looked up): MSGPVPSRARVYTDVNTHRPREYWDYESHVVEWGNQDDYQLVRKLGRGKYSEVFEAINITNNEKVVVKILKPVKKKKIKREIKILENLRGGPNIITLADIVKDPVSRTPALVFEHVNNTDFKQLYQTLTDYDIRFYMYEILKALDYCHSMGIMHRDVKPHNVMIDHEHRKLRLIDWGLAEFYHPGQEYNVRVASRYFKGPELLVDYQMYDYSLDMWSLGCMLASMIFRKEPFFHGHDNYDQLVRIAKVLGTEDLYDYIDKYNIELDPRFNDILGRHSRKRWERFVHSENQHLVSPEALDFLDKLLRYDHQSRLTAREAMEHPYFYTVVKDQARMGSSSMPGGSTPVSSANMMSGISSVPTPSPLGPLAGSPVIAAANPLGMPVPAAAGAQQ
Chain of MAPK1 (human) (P28482 whole entry, looked up): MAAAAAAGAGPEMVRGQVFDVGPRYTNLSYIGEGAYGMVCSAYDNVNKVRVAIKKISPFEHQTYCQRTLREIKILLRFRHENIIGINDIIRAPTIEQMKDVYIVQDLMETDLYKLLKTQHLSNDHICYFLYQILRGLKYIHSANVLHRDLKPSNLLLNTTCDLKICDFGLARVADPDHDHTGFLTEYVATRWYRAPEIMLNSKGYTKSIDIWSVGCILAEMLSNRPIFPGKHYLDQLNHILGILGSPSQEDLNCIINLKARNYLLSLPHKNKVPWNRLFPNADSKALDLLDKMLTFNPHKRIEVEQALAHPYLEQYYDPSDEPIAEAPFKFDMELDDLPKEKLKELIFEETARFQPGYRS
Chain of NEK2 (human) (P51955 whole entry, looked up): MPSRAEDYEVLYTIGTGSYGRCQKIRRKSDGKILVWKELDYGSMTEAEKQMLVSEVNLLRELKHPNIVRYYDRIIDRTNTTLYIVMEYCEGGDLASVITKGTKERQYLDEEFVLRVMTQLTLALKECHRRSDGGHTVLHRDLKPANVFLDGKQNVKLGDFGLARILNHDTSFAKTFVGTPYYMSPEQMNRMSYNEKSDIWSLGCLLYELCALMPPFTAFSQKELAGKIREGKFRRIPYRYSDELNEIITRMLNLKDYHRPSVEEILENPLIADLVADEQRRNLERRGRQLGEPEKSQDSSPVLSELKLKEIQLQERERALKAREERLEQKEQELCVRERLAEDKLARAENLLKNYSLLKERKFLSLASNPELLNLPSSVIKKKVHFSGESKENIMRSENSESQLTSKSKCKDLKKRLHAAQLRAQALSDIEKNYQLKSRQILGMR
Chain of CSNK1D (human) (P48730 whole entry, looked up): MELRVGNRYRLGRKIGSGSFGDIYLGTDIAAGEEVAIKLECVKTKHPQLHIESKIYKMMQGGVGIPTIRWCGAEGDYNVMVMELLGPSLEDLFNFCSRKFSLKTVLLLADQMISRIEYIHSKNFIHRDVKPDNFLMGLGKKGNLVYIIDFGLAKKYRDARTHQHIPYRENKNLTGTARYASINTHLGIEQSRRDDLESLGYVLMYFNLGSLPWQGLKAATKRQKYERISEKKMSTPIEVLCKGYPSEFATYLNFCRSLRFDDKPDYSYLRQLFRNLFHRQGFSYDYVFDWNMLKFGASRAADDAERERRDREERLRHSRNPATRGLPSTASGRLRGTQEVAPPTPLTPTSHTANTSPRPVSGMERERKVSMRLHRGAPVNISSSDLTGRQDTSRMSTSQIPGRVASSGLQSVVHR
Chain of BTK (human) (Q06187 whole entry, looked up): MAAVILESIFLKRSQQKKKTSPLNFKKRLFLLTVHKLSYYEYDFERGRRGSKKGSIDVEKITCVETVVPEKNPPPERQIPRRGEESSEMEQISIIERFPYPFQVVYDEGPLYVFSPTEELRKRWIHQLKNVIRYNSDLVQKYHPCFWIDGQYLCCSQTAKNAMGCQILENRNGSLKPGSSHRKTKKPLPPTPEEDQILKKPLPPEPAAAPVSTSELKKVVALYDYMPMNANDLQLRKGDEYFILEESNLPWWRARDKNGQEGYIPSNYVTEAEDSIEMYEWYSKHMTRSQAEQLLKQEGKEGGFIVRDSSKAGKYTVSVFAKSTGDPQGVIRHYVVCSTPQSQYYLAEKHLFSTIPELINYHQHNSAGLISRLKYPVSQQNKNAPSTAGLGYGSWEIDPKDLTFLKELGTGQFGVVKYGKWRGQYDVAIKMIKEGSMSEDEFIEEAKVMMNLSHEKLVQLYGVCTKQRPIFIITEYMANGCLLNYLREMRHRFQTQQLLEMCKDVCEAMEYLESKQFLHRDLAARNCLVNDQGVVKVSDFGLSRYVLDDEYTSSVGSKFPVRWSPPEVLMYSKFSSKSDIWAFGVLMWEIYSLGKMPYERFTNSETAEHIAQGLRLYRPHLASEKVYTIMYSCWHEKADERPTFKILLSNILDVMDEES
Chain of MAPK14 (human) (Q16539 whole entry, looked up): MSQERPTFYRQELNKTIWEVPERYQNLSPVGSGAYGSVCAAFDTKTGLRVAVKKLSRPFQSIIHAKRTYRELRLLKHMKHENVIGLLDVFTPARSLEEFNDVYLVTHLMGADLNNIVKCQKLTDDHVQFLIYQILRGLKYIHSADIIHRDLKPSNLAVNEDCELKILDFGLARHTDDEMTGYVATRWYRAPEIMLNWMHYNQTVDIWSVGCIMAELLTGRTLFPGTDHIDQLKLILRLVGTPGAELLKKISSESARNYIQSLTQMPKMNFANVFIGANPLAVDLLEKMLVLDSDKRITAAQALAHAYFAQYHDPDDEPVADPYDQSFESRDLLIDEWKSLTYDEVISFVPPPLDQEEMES

residual activity (MAPK1 (human); compound 0.1 µM): 93%
residual activity (MAPK1 (human); compound 1.0 µM): 85%
residual activity (MAPK1 (human); compound 10.0 µM): 86%
residual activity (NEK2 (human); compound 0.1 µM): 95%
residual activity (NEK2 (human); compound 1.0 µM): 94%
residual activity (NEK2 (human); compound 10.0 µM): 91%
residual activity ([1]; compound 0.1 µM): 74%
residual activity ([1]; compound 1.0 µM): 73%
residual activity ([1]; compound 10.0 µM): 60%
residual activity (HIPK2 (human); compound 0.1 µM): 108%
residual activity (HIPK2 (human); compound 1.0 µM): 86%
residual activity (HIPK2 (human); compound 10.0 µM): 88%
residual activity (CSNK1D (human); compound 0.1 µM): 96%
residual activity (CSNK1D (human); compound 1.0 µM): 93%
residual activity (CSNK1D (human); compound 10.0 µM): 71%
residual activity (MARK3 (human); compound 0.1 µM): 94%
residual activity (MARK3 (human); compound 1.0 µM): 83%
residual activity (MARK3 (human); compound 10.0 µM): 82%
residual activity (BTK (human); compound 0.1 µM): 83%
residual activity (BTK (human); compound 1.0 µM): 87%
residual activity (BTK (human); compound 10.0 µM): 92%
residual activity (FLT1 (human); compound 0.1 µM): 97%
residual activity (FLT1 (human); compound 1.0 µM): 83%
residual activity (FLT1 (human); compound 10.0 µM): 37%
residual activity (INSRR (human); compound 0.1 µM): 88%
residual activity (INSRR (human); compound 1.0 µM): 96%
residual activity (INSRR (human); compound 10.0 µM): 77%
residual activity (DYRK2 (human); compound 0.1 µM): 97%
residual activity (DYRK2 (human); compound 1.0 µM): 104%
residual activity (DYRK2 (human); compound 10.0 µM): 101%
residual activity ([2]; compound 0.1 µM): 39%
residual activity ([2]; compound 1.0 µM): 16%
residual activity ([2]; compound 10.0 µM): 6%
residual activity (MAPK11 (human); compound 0.1 µM): 88%
residual activity (MAPK11 (human); compound 1.0 µM): 89%
residual activity (MAPK11 (human); compound 10.0 µM): 97%
residual activity (MAPK14 (human); compound 0.1 µM): 86%
residual activity (MAPK14 (human); compound 1.0 µM): 79%
residual activity (MAPK14 (human); compound 10.0 µM): 86%
residual activity (INSR (human); compound 0.1 µM): 108%
residual activity (INSR (human); compound 1.0 µM): 95%
residual activity (INSR (human); compound 10.0 µM): 96%
residual activity (YES1 (human); compound 0.1 µM): 98%
residual activity (YES1 (human); compound 1.0 µM): 84%
residual activity (YES1 (human); compound 10.0 µM): 76%
residual activity (NEK6 (human); compound 0.1 µM): 88%
residual activity (NEK6 (human); compound 1.0 µM): 75%
residual activity (NEK6 (human); compound 10.0 µM): 80%
residual activity (RPS6KA1 KD1 KD2 (human); compound 0.1 µM): 46%
residual activity (RPS6KA1 KD1 KD2 (human); compound 1.0 µM): 33%
residual activity (RPS6KA1 KD1 KD2 (human); compound 10.0 µM): 0%
residual activity (RPS6KA5 KD1 KD2 (human); compound 0.1 µM): 80%
residual activity (RPS6KA5 KD1 KD2 (human); compound 1.0 µM): 34%
residual activity (RPS6KA5 KD1 KD2 (human); compound 10.0 µM): 6%
residual activity (PRKCA (human); compound 0.1 µM): 119%
residual activity (PRKCA (human); compound 1.0 µM): 106%
residual activity (PRKCA (human); compound 10.0 µM): 62%
residual activity (MKNK2 (human); compound 0.1 µM): 92%
residual activity (MKNK2 (human); compound 1.0 µM): 93%
residual activity (MKNK2 (human); compound 10.0 µM): 79%
residual activity (CSNK2A1 (human); compound 0.1 µM): 96%
residual activity (CSNK2A1 (human); compound 1.0 µM): 92%
residual activity (CSNK2A1 (human); compound 10.0 µM): 83%
residual activity (SRPK1 (human); compound 0.1 µM): 108%
residual activity (SRPK1 (human); compound 1.0 µM): 106%
residual activity (SRPK1 (human); compound 10.0 µM): 101%
SMILES: CCc1cncnc1N1CCN(Cc2nc3cc(C(F)(F)F)ccc3[nH]2)CC1
residual activity (MAPK15 (human); compound 0.1 µM): 85%
residual activity (MAPK15 (human); compound 1.0 µM): 83%
residual activity (MAPK15 (human); compound 10.0 µM): 71%
